The text below walks through data of patent publication US7648997B2, “Hydroxylamine substituted imidazoquinolines” (Coley Pharmaceutical Group, Inc., priority 2003, dated 2010).

For the molecule `CCCc1nc2c(N)nc3ccccc3c2n1CCCON` [Example 1, 1-[3-(Aminooxy)propyl]-2-propyl-1H-imidazo[4,5-c]quinolin-4-amine], the melting point (usually the temperature, or range, at which the solid turns liquid) was in the range of 145 to 148 °C.

The molecule `CCCc1nc2c(N)nc3cc(-c4ccccc4)ccc3c2n1CCCONC(=O)C(C)C` [Example 138, N-[3-(4-Amino-7-phenyl-2-propyl-1H-imidazo[4,5-c]quinolin-1-yl)propoxy]-2-methylpropanamide] showed a melting point of 169 to 171 °C.

`CCCc1nc2c(N)nc(C)c(C)c2n1CCCONC(C)c1ccccc1` (centres unmarked) [Example 129, 6,7-Dimethyl-1-(3-{[(1-phenylethyl)amino]oxy}propyl)-2-propyl-1H-imidazo[4,5-c]pyridin-4-amine] registered a melting point of 125 to 127 °C.

Turning to `CCCc1nc2c(N)nc3ccccc3c2n1CCCONC(C)C` [Example 130, 1-{3-[(Isopropylamino)oxy]propyl}-2-propyl-1H-imidazo[4,5-c]quinolin-4-amine], the melting point is 147 to 150 °C.

Molecule `CCCc1nc2c(N)nc3ccccc3c2n1CCCONC(=O)C1CC1` [Example 2, N-[3-(4-Amino-2-propyl-1H-imidazo[4,5-c]quinolin-1-yl)propoxy]cyclopropanecarboxamide] gave a melting point of 103 to 105 °C.

As to `CCCc1nc2c(N)nc3cc(Br)ccc3c2n1CCCONC(=O)C(C)C` [Example 137, N-[3-(4-Amino-7-bromo-2-propyl-1H-imidazo[4,5-c]quinolin-1-yl)propoxy]-2-methylpropanamide], the melting point lay within 176 to 178 °C.

As to `CCOCc1nc2c(N)nc3cc(-c4ccccc4)cnc3c2n1CCCONC(C)C` [Example 139, 2-(Ethoxymethyl)-1-{3-[(isopropylamino)oxy]propyl}-7-phenyl-1H-imidazo[4,5-c][1,5]naphthyridin-4-amine], the melting point fell in the range of 142 to 144 °C.

Regarding `CCCCc1nc2c(N)nc3ccccc3c2n1CCCCONC(C)C` [Example 72, 2-Butyl-1-{4-[(isopropylamino)oxy]butyl}-1H-imidazo[4,5-c]quinolin-4-amine], the melting point was in the range of 115 to 117 °C.
